Assay results: patent US8895032B2, “Dendritic nano-antioxidants” (Central Michigan University, priority 2009, dated 2014)
pIC50: −log10 of the molar value. Where “and” joins values, the source holds several entries; their conditions need not be identical. Identical values can stand only once.

How the values were obtained:
Format in all cases: biochemical
[1] = FRAP assay (reduction of Fe(III) to Fe(II)); parameters: Slope of ΔA593 versus concentration: unit not given here; settings: for Slope of ΔA593 versus concentration: 37° C.
Experimental: The FRAP assay was performed as previously described (Pulido, et al. J. Agric. Food Chem. 2000, 48, 3396-3402, incorporated herein by reference in its entirety). In the FRAP assay, ferric was reduced by the antioxidant to ferrous via electron transfer (Benzie et al., Anal. Biochem. 1996, 239, 70-76, incorporated herein by reference in its entirety). This assay measured the redox potential of an antioxidant which is used as an estimate of antioxidant efficiency and expressed as a FRAP value. […] The compound 1 as well as the other antioxidants was dissolved in methanol. […] Reaction kinetics of the compound 1 and other antioxidants were obtained by plotting the change in slopes at various times and are shown in FIG. 18. […] This time-dependent increase in absorbance was previously reported (Pulido, et al. J. Agric. Food Chem. 2000, 48, 3396-3402, incorporated herein by reference in its entirety) and was especially significant with polyphenolic compounds. […] However, the FRAP value increased with time, reaching 2.5 in 60 min. […] J. Agric. Food Chem. 2000, 48, 3396-3402, incorporated herein by reference in its entirety). […] EC1 values, and therefore ferric reducing ability, were lower at longer reaction times as expected from the kinetic behavior of the antioxidants (Pulido, et al. J. Agric. Food Chem. 2000, 48, 3396-3402, incorporated herein by reference in its entirety).

Human LDL = test: Protection of LDL from AAPH oxidation (agarose gel electrophoresis); settings: 37° C.
[2] = ABTS radical cation decolorization assay; settings: for pIC50: final concentration in the cuvet, read-out: concentration at which 50% inhibition of ABTS•+ was observed; for Slope of % decrease in absorbance at 6 min versus antioxidant concentration: linear regression, concentration in μM; for TEAC: slope divided by that of Trolox, % decrease in A734 at 6 min, ethanol
From the text: We have tested AO activity of G1 (13) using ABTS as a radical source using a previously reported spectroscopic assay. The AO activity of the G1 (13) was compared to those of syringaldehyde, gallic acid, and vitamin C. If the phenolic OH group is the radical scavenging site, the expected AO activity of the G1 (13) should be 4 fold higher than that of syringaldehyde and 1.3 fold higher than that of gallic acid (which has three phenolic OH groups).
ABTS radical cation decolorization assay was used as previously described (Ozgen, et al. J. Agric. Food Chem. 2006, 54, 1151-1157, incorporated herein by reference in its entirety). Like the DPPH assay, this was also a decolorization assay and measured absorbance decrease at 734 nm as the ABTS radical (ABTS•+) is quenched by the antioxidant. The solvent used for the assay was ethanol. ABTS reagent was added to 1.0 mL solvent in a cuvet to bring the absorbance to 0.7. A 10 μL sample of antioxidant was then added, mixed, and the absorbance monitored at 734 nm for 6 min. Antioxidant concentrations were 14.4 μM Trolox, 11.4 μM ascorbic acid, 15.4 μM syringaldehyde, and 3 μM compound 1. The % decrease in absorbance at 6 min was plotted against antioxidant concentrations. The gradient of the line obtained by linear regression for a given antioxidant was divided by that obtained for Trolox to yield Trolox equivalent antioxidant (TEAC) values. All samples were made in ethanol and run in triplicates and at room temperature.

Structure (SMILES) | Antioxidant Capacity Relative to Trolox, FRAP 5 min ([1]; 5 min) | EC1 (concentration with ferric-TPTZ reducing ability equivalent to 1 mM FeSO4.7H2O) ([1]; 5 min) [µM] | FRAP value relative to Fe(II) ([1]; 5 min) | FRAP value relative to Fe(II) ([1]; 15 min) | FRAP value relative to Fe(II) ([1]; 30 min) | Antioxidant Capacity Relative to Trolox, FRAP 60 min ([1]; 60 min) | EC1 (concentration with ferric-TPTZ reducing ability equivalent to 1 mM FeSO4.7H2O) ([1]; 60 min) [µM] | FRAP value relative to Fe(II) ([1]; 60 min) | Slope of ΔA593 versus concentration ([1]; Reaction time 5 min) | Slope of ΔA593 versus concentration ([1]; Reaction time 15 min) | Slope of ΔA593 versus concentration ([1]; Reaction time 30 min) | Slope of ΔA593 versus concentration ([1]; Reaction time 60 min) | Antioxidant Capacity Relative to Trolox, ABTS [2] | pIC50 [2] | Slope of % decrease in absorbance at 6 min versus antioxidant concentration [2] | TEAC [2] | other results
COc1cc(CN(Cc2ccc(CN(Cc3cc(OC)c(O)c(OC)c3)Cc3cc(OC)c(O)c(OC)c3)cc2)Cc2cc(OC)c(O)c(OC)c2)cc(OC)c1O [Compound 1] | 6.1 | 74 | 13.5 | 14.6 | 15.1 | 7.2 | 63 | 15.8 | 0.163 | 0.175 | 0.182 | 0.190 | 8.5 | ~5.82 | 33.9 | 8.48 | FRAP, times better than ascorbic acid ([1]; 5 min): 6.7 times; Antioxidant Capacity Relative to Trolox, FRAP 5 min ([1]; 5 min, listed as compound 1): ~6 and 6.1; FRAP ratio to syringaldehyde ([1]; 5 min, listed as compound 1): ~2.6 times and 2.7 times; FRAP ratio to syringaldehyde ([1]; 60 min): 1.7 times; FRAP, times better than ascorbic acid ([1]; 60 min): 6.5 times; Antioxidant Capacity Relative to Trolox, FRAP 60 min ([1]; 60 min, listed as compound 1): ~7 and 7.2; protection of LDL from AAPH free radicals (anodic migration) (Human LDL; 10 mM AAPH, 18 h): most efficient in protecting LDL; only concentration effective in protecting LDL (Human LDL; 20 mM AAPH, 21 h): 30 µM; AO activity higher than that of gallic acid ([2]; ABTS as radical source): 3 fold; AO activity higher than that of syringaldehyde ([2]; ABTS as radical source): 7 fold; AO activity higher than that of vitamin C ([2]; ABTS as radical source): 7.6 fold; ABTS, times better than ascorbic acid ([2]; based on TEAC): 9.4 times; ABTS, times better than syringaldehyde ([2]; based on TEAC): 8.7 times
Cc1c(C)c2c(c(C)c1O)CCC(C)(C(=O)O)O2 (stereo not drawn) [Trolox, 6-hydroxy-2,5,7,8-tetramethylchroman-2-carboxylic acid] | 1 | 450 | 2.2 | 2.2 | 2.2 | 1 | 449 | 2.2 | 0.0268 | 0.0269 | 0.0269 | 0.0269 | 1 | ~5.00 | 4 | 1 | FRAP value, did not change with time ([1]; testing period 60 min): 2.2; protection of LDL at all antioxidant concentrations (Human LDL; 1-30 μM, 20 mM AAPH, 21 h): ineffective; time to reach a plateau of ABTS•+ absorbance suppression ([2]; 14.4 μM Trolox, 11.4 μM ascorbic acid): one
